Data taken from US11186617B2, “Epitope” (HOYU CO., LTD., priority 2017, dated 2021).
Entries after “also recorded” stand apart in the source; their conditions may differ.

How the values were obtained:
[1] = tested on: IgE antibody in the serum from a patient; assay: Epitope mapping (2): overlapping peptide library, ELISA; format: binding, human; details: overlapping peptide fragments, 10 amino acids in length; 10 μg/ml biotin-bound peptide; 2% serum from patient 1; FIG. 2
Protocol: Based on the sequences (SEQ ID NOs: 6 and 13) of the peptides to which the IgE antibody in the serum bound in a manner specific to a patient in the above (A), a library of overlapping peptide fragments (10 amino acids in length) was prepared. The library was prepared using the sequences where sequences of the previous sequence and the next sequence of the aforementioned peptides in the full-length amino acid sequence of ω-5 gliadin from bread wheat (SEQ ID NO: 51) were added to the aforementioned peptides, and epitope mapping was performed.
Each synthesized peptide was shifted by one amino acid. In other words, each peptide overlaps with the previous peptide and the next peptide, each by 9 amino acids.
The target peptide was synthesized on the amino-modified resin in a 96-well plate by a method similar to that described above for (A). Biotin was bound to the amino terminus of the synthesized target peptide, with the biotin and the peptide sandwiching amino caproic acid derived from Fmoc-Acp(6)-OH as a spacer.
Said library was used to measure whether each peptide fragment is bound by the IgE antibody in the serum from a patient due to an antigen-antibody reaction, or not, and identify a sequence common to the peptides bound by the IgE antibody from the patient, thereby determining a peptide having the shortest amino acid sequence that serves as an epitope. Measurement was performed by an ELISA method in accordance with the following procedures.
(1) 10 μg/ml biotin-bound peptide of the library was prepared in PBST solution and was shaken in an avidin-coated ELISA plate for one hour at room temperature.
(2) The plate was washed with PBST solution.
(3) The plate was shaken in PBST solution with 1% skimmed milk for one hour at room temperature.
(4) The plate was shaken in PBST solution with 2% serum and 1% skimmed milk for one hour at room temperature.
(5) The plate was washed with PBST solution.
(6) Anti-human IgE antibody-HRP (1:10,000, PBST solution with 1% skimmed milk) was added and the plate was shaken for one hour at room temperature.
(7) The plate was washed with PBST solution.
(8) 20 μl of TMB ELISA (manufactured by Thermo Fisher Scientific) was added and the plate was shaken for 15 minutes at room temperature.
(9) 20 μl of 2 M sulfuric acid was added to quench an enzymatic reaction.
(10) An absorbance at 450 nm was measured.
(SEQ ID NO: 15), a subsequence of ω-5 gliadin from bread wheat, was measured by the overlapping technique in the library prepared based on SEQ ID NO: 6 and the obtained result is shown in FIG. 2. […] (SEQ ID NO: 23), a subsequence of ω-5 gliadin from bread wheat, was measured by the overlapping technique in the library prepared based on SEQ ID NO: 13 and the obtained result is shown in FIG. 2.

[2] = tested on: IgE antibody from the patient; assay: Epitope mapping (3): alanine scanning ELISA, patient serum; format: binding, human; details: alanine-substituted peptides; serum from patient 1; FIG. 3
Protocol: (§1) The amino acid sequence of SEQ ID NO: 22 and the amino acid sequence of SEQ ID NO: 29 identified in the above-mentioned (B) were subjected to a technique referred to as alanine scanning (Non Patent Literature 1). Specifically, a library of peptide fragments was prepared by a technique similar to that described above in (B), in which the peptide fragments were produced by substituting one amino acid at a time with alanine in each amino acid sequence of […], starting from the amino acid at an amino terminal side. Then, a technique similar to that described above in (B) was used to measure whether each peptide fragment was bound by the IgE antibody in the serum from a patient and a healthy subject, or not. When alanine substitution of an amino acid at a certain position led to loss or reduction of binding activity to the IgE antibody from the patient and development of binding activity to the IgE antibody from the healthy subject, the amino acid was determined to be an amino acid important for expression of inherent antigenicity or an amino acid affecting expression of inherent antigenicity. […] A common sequence important for expression of inherent antigenicity was discovered by this analysis.
(§2) The result of alanine scanning performed on the amino acid sequence of SEQ ID NO: 22 and the result of alanine scanning performed on the amino acid sequence of SEQ ID NO: 29 are shown in FIG. 3, respectively.

[3] = tested on: IgE antibody from the healthy subject; assay: Epitope mapping (3): alanine scanning ELISA, healthy subject serum; format: binding, human; details: alanine-substituted peptides; sera from healthy individuals 1 and 2; FIG. 3
Protocol: as §1, §2

[4] = tested on: anti-human IgE antibody as a secondary antibody; assay: Epitope mapping (3): alanine scanning ELISA, secondary antibody used alone; format: binding; details: alanine-substituted peptides, FIG. 3
Excerpt: FIG. 3 is a diagram showing the result of investigation of positions important for exerting antigenicity in SEQ ID NOs: 22 and 29 by an alanine scanning technique. The number on the horizontal axis denotes a value of coloration intensity at 450 nm measured by an absorption spectrometer (Abs.). In this figure, a double wavy line denotes that a value is not shown, P1 denotes that the serum from patient 1 was used, N1 and N2 denote that the sera from healthy individuals 1 and 2 were used, and 2nd denotes that an anti-human IgE antibody as a secondary antibody was used alone.
as §1, §2

Substance	binding with the IgE antibody from the patient (absorbance at 450 nm) [1]	binding activity to the IgE antibody from the patient (absorbance at 450 nm) [2]	binding activity to the IgE antibody from the healthy subject (absorbance at 450 nm) [3]	binding activity to the anti-human IgE antibody as the secondary antibody (absorbance at 450 nm) [4]
SEQ ID NO: 39: amino acid at position 4 in SEQ ID NO: 29 substituted with alanine (PQQAPPQQHQFPQQQ; modified epitope)	–	retained binding activity	did not develop binding activity	–
SEQ ID NO: 14: amino acid at position 5 in SEQ ID NO: 29 substituted with alanine (PQQQAPQQHQFPQQQ; epitope)	–	retained binding activity; also recorded: substantially increased binding activity	did not develop binding activity	–
SEQ ID NO: 18: overlapping 10-amino-acid peptide fragment from SEQ ID NO: 15 library, contains SEQ ID NO: 22 (QQEFPQQQQF; epitope candidate)	strong binding	–	–	–
SEQ ID NO: 31: amino acid at position 6 in SEQ ID NO: 22 substituted with alanine (QQFPQQEFPQAQQFP; modified epitope)	–	slightly reduced binding activity	developed a relatively low level of binding activity	developed a relatively low level of binding activity
SEQ ID NO: 16: overlapping 10-amino-acid peptide fragment from SEQ ID NO: 15 library (EFPQQQQFPQ; epitope candidate)	no binding	–	–	–
SEQ ID NO: 41: amino acid at position 2 in SEQ ID NO: 29 substituted with alanine (PAQQPPQQHQFPQQQ; modified epitope)	–	a relatively low level of reduction of binding activity	–	–
SEQ ID NO: 7: amino acid at position 3 in SEQ ID NO: 22 substituted with alanine (QQFPQQEAPQQQQFP; epitope)	–	retained binding activity; also recorded: substantially increased binding activity	developed little binding activity	developed little binding activity
SEQ ID NO: 28: overlapping 10-amino-acid peptide fragment from SEQ ID NO: 23 library (QQFPQQQPPQ; epitope candidate)	no binding	–	–	–
SEQ ID NO: 32: amino acid at position 5 in SEQ ID NO: 22 substituted with alanine (QQFPQQEFPAQQQFP; modified epitope)	–	reduced binding activity	did not develop binding activity	did not develop binding activity
SEQ ID NO: 33: amino acid at position 4 in SEQ ID NO: 22 substituted with alanine (QQFPQQEFAQQQQFP; modified epitope)	–	lost or reduced	developed binding activity	–
SEQ ID NO: 24: overlapping 10-amino-acid peptide fragment from SEQ ID NO: 23 library (QQQPPQQHQF; epitope candidate)	no binding	–	–	–
SEQ ID NO: 19: overlapping 10-amino-acid peptide fragment from SEQ ID NO: 15 library, contains SEQ ID NO: 22 (PQQEFPQQQQ; epitope candidate)	slightly weaker binding	–	–	–
SEQ ID NO: 17: overlapping 10-amino-acid peptide fragment from SEQ ID NO: 15 library, contains SEQ ID NO: 22 (QEFPQQQQFP; epitope candidate)	slightly weaker binding	–	–	–
SEQ ID NO: 21: overlapping 10-amino-acid peptide fragment from SEQ ID NO: 15 library (QFPQQEFPQQ; epitope candidate)	no binding	–	–	–

Continued, values first:

binding with the IgE antibody from the patient (absorbance at 450 nm) [1]	binding activity to the IgE antibody from the patient (absorbance at 450 nm) [2]	binding activity to the IgE antibody from the healthy subject (absorbance at 450 nm) [3]	binding activity to the anti-human IgE antibody as the secondary antibody (absorbance at 450 nm) [4]	Substance
strong binding	–	–	–	SEQ ID NO: 25: overlapping 10-amino-acid peptide fragment from SEQ ID NO: 23 library, contains SEQ ID NO: 29 (PQQQPPQQHQ; epitope candidate)
slightly weaker binding	–	–	–	SEQ ID NO: 27: overlapping 10-amino-acid peptide fragment from SEQ ID NO: 23 library, contains SEQ ID NO: 29 (QFPQQQPPQQ; epitope candidate)
strong binding	–	–	–	SEQ ID NO: 26: overlapping 10-amino-acid peptide fragment from SEQ ID NO: 23 library, contains SEQ ID NO: 29 (FPQQQPPQQH; epitope candidate)
strong binding	–	–	–	SEQ ID NO: 20: overlapping 10-amino-acid peptide fragment from SEQ ID NO: 15 library, contains SEQ ID NO: 22 (FPQQEFPQQQ; epitope candidate)
–	lost or reduced	–	developed binding activity	SEQ ID NO: 30: amino acid at position 7 in SEQ ID NO: 22 substituted with alanine (QQFPQQEFPQQAQFP; modified epitope)
–	loss of binding activity	–	developed binding activity	SEQ ID NO: 40: amino acid at position 3 in SEQ ID NO: 29 substituted with alanine (PQAQPPQQHQFPQQQ; modified epitope)
–	slightly increased binding activity	developed binding activity	–	SEQ ID NO: 34: amino acid at position 2 in SEQ ID NO: 22 substituted with alanine (QQFPQQAFPQQQQFP; modified epitope)
–	loss of binding activity	–	–	SEQ ID NO: 42: amino acid at position 1 in SEQ ID NO: 29 substituted with alanine (AQQQPPQQHQFPQQQ; Artificial Sequnece; modified epitope)
